Results from patent publication US6627650B2, “Indenoindolone compounds” (Les Laboratoires Servier, priority 2001, dated 2003).
Structures can show the parent of a compound that is named as a salt. Where two headings read alike, the source gives them in different places.

Key:
[1] = system: L1210 cells; test: Action on the cell cycle (L1210), flow cytometry; type: cell-based, murine; conditions: concentration 0.25 μM, after 21 hours (control: 20%)
Experimental: L1210 cells are incubated for 21 hours at 37° C. in the presence of various concentrations of compound tested. The cells are then fixed using 70% ethanol (v/v), washed twice in PBS and incubated for 30 minutes at 20° C. in PBS that contains 100 μg/ml of RNAse and 50 μg/ml of propidium iodide. The distribution of the cells in the various phases of the cell cycle are then analysed by flow cytometry. The results are expressed as a percentage of the cells that have accumulated in the G2+M phase after 21 hours compared with the control (control: 20%). By way of example, at a concentration of 0.25 μM the compounds of Examples 1 and 18 induce a 75% accumulation of the cells in the G2+M phase after 21 hours.

[2] = system: A549; test: In vitro cytotoxicity, microculture tetrazolium assay, A549; type: cell-based, human; conditions: read-out: IC50 A549
Experimental: (§1) Five cell lines were used:
1 non-small-cell human lung carcinoma, A549.
(§2) The cells are cultured in RPMI 1640 complete culture medium comprising 10% fetal calf serum, 2 mM glutamine, 50 units/ml of penicillin, 50 μg/ml of streptomycin and 10 mM Hepes, pH 7.4. The cells are distributed on microplates and are exposed to the cytotoxic compounds. The cells are then incubated for four doubling periods (2 days: L1210, P388, or 4 days: A549, HT29, A-431). The number of viable cells is then quantified by a colorimetric assay, the microculture tetrazolium assay (Cancer Res. 1987, 47 939-942).
(§3) The results are expressed as IC50, the concentration of product that inhibits the proliferation of the treated cells by 50% compared with the untreated cells.

[3] = system: A-431; test: In vitro cytotoxicity, microculture tetrazolium assay, A-431; type: cell-based, human; conditions: read-out: IC50 A-431
Experimental: as §1
1 human epidermoid carcinoma, A-431.
as §2, §3

[4] = system: HT29; test: In vitro cytotoxicity, microculture tetrazolium assay, HT29; type: cell-based, human; conditions: HT-29, 96 h, read-out: IC50 HT29
Experimental: as §1
1 human colon carcinoma, HT29.
as §2, §3

[5] = system: C38 colon carcinoma; test: In vivo anti-tumour activity on established C38 colon carcinoma; conditions: from a dose of 25 mg/kg, i.v. once a week for 3 weeks (days 10, 17 and 24), B6D2F1 mice, subcutaneous C38
Experimental: Fragments of C38 colon carcinoma weighing approximately 30 mg were grafted subcutaneously on day 0 onto B6D2F1 mice (Iffa Credo, France). After growth of the tumour, the mice were separated into control (18 animals) and treated (6 to 7 animals) groups, which were homogeneous in respect of the tumour size. The products were administered by the i.v. route once a week for 3 weeks (on days 10, 17 and 24) at their maximum tolerated dose (MTD), MTD/2 and MTD/4.
The tumours were measured twice per week and the tumour volumes were calculated according to the formula: volume (mm^3)=length (mm)×width^2 (mm^2)/2.
The anti-tumour activity is expressed as % T/C: [formula]
VO and Vt denoting, respectively, the initial volume of the tumour and its volume at the time of measurement t.
The optimum dose is the dose that yields the lowest T/C without toxicity (premature death or loss of weight greater than 20%).

[6] = system: L1210; test: In vitro cytotoxicity, microculture tetrazolium assay, L1210; type: cell-based; conditions: Mus musculus, 48 h; L1210 murine leukaemia, 2 days incubation, inhibition of proliferation
Experimental: as §1, §2, §3

[7] = system: P388; test: In vitro cytotoxicity, microculture tetrazolium assay, P388; type: cell-based; conditions: Mus musculus, 48 h; P388 murine leukaemia, 2 days incubation, inhibition of proliferation
Experimental: as §1, §2, §3

Compound	accumulation of the cells in the G2+M phase [1] [%]	IC50 ([2]; Homo sapiens, A549, 96 h) [µM]	IC50 ([3]; Homo sapiens, A-431, 96 h) [µM]	IC50 ([4]; Homo sapiens) [µM]	T/C (tumour volume) [5] [%]	IC50 [6] [µM]	IC50 ([2]; 96 h, A549 non-small-cell human lung carcinoma, 4 days incubation) [µM]	IC50 [7] [µM]	IC50 ([3]; 96 h, A-431 human epidermoid carcinoma, 4 days incubation) [µM]	IC50 ([4]; HT29 human colon carcinoma, 4 days incubation) [µM]
C#CC(O/N=C1/c2cc(OC)c(OC)cc2-c2[nH]c3ccc(OCCN(C)C)cc3c21)c1ccccc1 (centres unmarked) [Example 1, (10Z)-8-(2-Dimethylaminoethoxy)-2,3-dimethoxyindeno[1,2-b]indole-10(5H)-one O-(1-Phenyl-2-Propynyl)oxime Hydrochloride]	75	0.071	0.087	0.248	–	–	–	–	–	–
C#CCO/N=C1/c2cc(OC)c(OC)cc2-c2[nH]c3ccc(OCCN(C)C)cc3c21.Cl [Example 18, (10Z)-8-(2-Dimethylaminoethoxy)-2,3-dimethoxyindeno[1,2-b]indole-10(5H)-one O-(2-Propynyl)oxime Hydrochloride]	75	–	–	–	24	0.104	0.101	0.241	0.174	0.181
